The record followed here is US20210139497A1, “THIENOCYCLIC COMPOUND AND SYNTHESIS METHOD THEREFOR AND APPLICATION THEREOF” (SHANGHAI YUYAO BIOTECH LTD., priority 2017, published 2021).

Data set [1] has as its system mouse colon cancer cells CT26. The data set is described as follows: CT26 subcutaneous tumor-bearing model, Balb/c mice. Format: in vivo. The conditions noted are these: female Balb/c mice, 75 mg/kg/day, 14 days, vs negative control, FIG. 3. As for the experimental part:
2×10^6 mouse colon cancer cells CT26 were subcutaneously injected into right side of each mouse's back (female Balb/c mouse, 6-8 weeks). The length and width of subcutaneous tumors in the back of mice were measured using vernier calipers, and tumor volume (mm^3)=(length(mm)×width(mm)×width(mm)×n)/6 was calculated. […] The volume of subcutaneous tumors on the back of mice was measured and counted twice a week. Continuous administrated for a period of 14 days and the changes of tumor volumes were recorded.
Mouse colon cancer cells MC38, pancreatic cancer cells Pan02, breast cancer cells 4T1, prostate cancer cells RM-1 and colon cancer cells CT26 were cultivated to required amount. Then, cells at a cell density of 5×10^5-2×10^6 were subcutaneously injected into right side of the back of selected female C57BL/6 mice aging 6-8 weeks (MC38, Pan02), male C57BL/6 mice aging 6-8 weeks (RM-1), female Balb/c mice aging 6-8 weeks (4T1, CT26) and female Balb/c nude mice aging 6-8 weeks (CT26). The length and width of subcutaneous tumors in the backs of mice were measured using vernier calipers, and tumor volume(mm^3)=(length(mm)×width(mm)×width(mm)×n)/6 was calculated. […] The volume of subcutaneous tumors on the back of mice was measured and counted 2-4 times a week. Continuous administrated for 12-22 days and the changes of tumor volumes were recorded.

Data set [2] has as its target T1, mouse PGE2 receptor EP4 subtype (mEP4) (Mus musculus, UniProt P32240).
T1 construct: expressed in transfected cells; host or cells: CHO-K1-Gα16
In words: Calcium flux of mouse prostaglandin E2 receptor EP4 subtype. Format: cell-based. The conditions noted are these: CHO-K1-Gα16 cells overexpressing mEP4, calcium flux activated by prostaglandin E2; read-out: mEP4 Ca^2+ IC50. As for the experimental part: (§1) CHO-K1-Gα16 cells at the logarithmic growth phase were transfected with EP4 overexpressing vector by Lipofectamine 2000 and then seeded in a 96-well plate (Falcon, CA) and cultured at 20000 cells per 100 μL culture medium overnight. On the second day, every single well were added with 100 μL calcium 5 detection reagents (Molecular Devices) and incubated in incubator at 37° C., 5% CO2 for 45 minutes. The compounds were diluted in HBSS detection buffer, then added to 96-well plates. After incubated for 20 min at room temperature away from light, certain concentration of prostaglandin E2 was used to activate calcium flux of cells for detection (Flexstation 3, MD, CA).
(§2) Calculate the IC50 of the compounds of the invention in inhibiting the calcium flux of human PGE2 receptor EP4 subtype (hEP4) and mouse PGE2 receptor EP4 subtype (mEP4) (i.e. the concentration of drugs at which the intracellular Ca^2+ flux is inhibited by half after overexpressing hEP4 and mEP4 receptors in CHO-K1-Gα16 cells). The IC50 of the drugs were calculated using GraphPad Prism 5.

Data set [3] can be described thus: Cytotoxicity evaluation (CCK8), 293. The conditions noted are these: human.
For data set [4], the target named is T2, human PGE2 receptor EP4 subtype (hEP4) (Homo sapiens, UniProt P35408).
T2 construct: expressed in transfected cells; host or cells: CHO-K1-Gα16
T2 sequence (P35408 whole entry): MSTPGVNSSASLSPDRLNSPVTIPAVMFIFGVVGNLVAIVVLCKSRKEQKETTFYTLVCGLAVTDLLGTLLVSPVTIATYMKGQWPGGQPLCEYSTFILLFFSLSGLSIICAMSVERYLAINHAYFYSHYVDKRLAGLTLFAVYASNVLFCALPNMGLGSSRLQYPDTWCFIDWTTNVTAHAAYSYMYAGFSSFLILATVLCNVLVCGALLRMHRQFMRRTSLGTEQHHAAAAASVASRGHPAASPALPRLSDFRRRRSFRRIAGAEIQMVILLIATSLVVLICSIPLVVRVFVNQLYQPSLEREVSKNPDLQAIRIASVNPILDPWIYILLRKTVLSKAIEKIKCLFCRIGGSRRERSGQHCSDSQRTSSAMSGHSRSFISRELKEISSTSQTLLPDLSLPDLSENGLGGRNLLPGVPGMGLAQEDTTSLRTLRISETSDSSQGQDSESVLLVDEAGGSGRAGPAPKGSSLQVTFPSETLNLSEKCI
The data set is described as follows: Calcium flux of human prostaglandin E2 receptor EP4 subtype. Format: cell-based. The conditions noted are these: CHO-K1-Gα16 cells overexpressing hEP4, calcium flux activated by prostaglandin E2; read-out: hEP4 Ca^2+ IC50. As for the experimental part: as §1, §2
Background: Calcium assays in cells follow changes in intracellular calcium, usually with a dye or a luminescent sensor.

Data set [5] is described as follows: Cytotoxicity evaluation (CCK8), EMT-6. The conditions noted are these: mouse, EMT-6 breast cancer cells.
Procedure: (§5) Cells with a density of 2000-8000 cells per 100 μL medium were seeded in 96-well plates (Falcon, CA) and incubated for 24 hours, then treated with drugs having different concentration gradient (at least 4 replicates per concentration) and incubated at 37° C. in 5% CO2 incubator for 72 hours. Then cell viability was detected by CCK8 method. That is to say, add 10 μL CCK8 to each well and incubate for 0.33-2 h, and the OD values are read by microplate reader at 450 nm. The inhibition rate on cell survival of compounds with each concentration were calculated.
(§6) Inhibition rate on cell survival=(OD value of groups with each concentration/OD
(§7) value of control group)×100%±standard deviation.
(§8) The IC50 of drugs were calculated using GraphPad Prism 5.0.
Data set [6] in a line: Cytotoxicity evaluation (CCK8), MOSJ. Particulars: mouse, MOSJ osteosarcoma cells.
Procedure: as §5, §6, §7, §8
Data set [7] can be described thus: Cytotoxicity evaluation (CCK8), CT26. The conditions noted are these: mouse, CT26 intestinal cancer cells.
Procedure: as §5, §6, §7, §8
The nature of data set [8]: Cytotoxicity evaluation (CCK8), LLC. The conditions noted are these: mouse, LLC lung cancer cells.
Procedure: as §5, §6, §7, §8
Data set [9] in a line: Cytotoxicity evaluation (CCK8), PANC02. The conditions noted are these: mouse, PANC02 pancreatic cancer cells.
Procedure: as §5, §6, §7, §8
The target in data set [10] is T3, human prostaglandin E2 receptor EP1 subtype (Homo sapiens, UniProt P34995).
T3 construct: expressed in transfected cells; host or cells: CHO-K1-Gα16
T3 sequence (P34995 1-402): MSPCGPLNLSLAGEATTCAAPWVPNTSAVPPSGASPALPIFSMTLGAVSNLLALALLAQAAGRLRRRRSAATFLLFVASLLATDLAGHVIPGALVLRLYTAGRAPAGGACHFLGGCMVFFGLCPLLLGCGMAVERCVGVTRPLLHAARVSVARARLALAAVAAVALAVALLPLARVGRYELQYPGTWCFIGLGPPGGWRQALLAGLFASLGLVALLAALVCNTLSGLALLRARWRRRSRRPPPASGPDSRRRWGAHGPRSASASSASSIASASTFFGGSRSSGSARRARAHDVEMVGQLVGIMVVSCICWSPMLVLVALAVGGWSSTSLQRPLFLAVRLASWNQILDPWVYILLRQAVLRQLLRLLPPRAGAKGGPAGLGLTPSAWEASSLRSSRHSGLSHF
In words: Calcium flux of human prostaglandin E2 receptor EP1 subtype. Format: cell-based. Particulars: CHO-K1-Gα16 cells overexpressing human EP1, activated by prostaglandin E2; read-out: hEP1 Ca^2+ IC50. As for the experimental part:
(§3) CHO-K1-Gα16 cells at the logarithmic growth phase were transfected with human prostaglandin E2 Receptor subtypes EP1, EP2 or EP3 overexpressing vector by Lipofectamine 2000, then seeded in a 96-well plate (Falcon, CA) at a density of 20000 cells per 100 μL culture medium for overnight culture. On the second day, every single well were added with 100 μL calcium 5 detection reagents (Molecular Devices) and incubated in incubator at 37° C., 5% CO2 for 45 minutes. The compounds were diluted with HBSS detection buffer, then were added to 96-well plates. After 20 min incubation at room temperature in the dark, prostaglandin E2 at certain concentration was used to activate calcium flux of cells for detection (Flexstation 3, MD, CA).
(§4) Calculate the IC50 of the compounds of the invention in inhibiting the calcium flux of human EP1, EP2, and EP3 receptor (i.e. the concentration of drugs at which the intracellular Ca^2+ flux being inhibited by half after overexpressing human EP1, EP2, and EP3 receptors in CHO-K1-Gα16 cells). The IC50 of the drugs were calculated using GraphPad Prism 5.

The target of data set [11] is T4, human prostaglandin E2 receptor EP3 subtype (Homo sapiens, UniProt P43115).
T4 construct: expressed in transfected cells; host or cells: CHO-K1-Gα16
T4 sequence (P43115 1-390): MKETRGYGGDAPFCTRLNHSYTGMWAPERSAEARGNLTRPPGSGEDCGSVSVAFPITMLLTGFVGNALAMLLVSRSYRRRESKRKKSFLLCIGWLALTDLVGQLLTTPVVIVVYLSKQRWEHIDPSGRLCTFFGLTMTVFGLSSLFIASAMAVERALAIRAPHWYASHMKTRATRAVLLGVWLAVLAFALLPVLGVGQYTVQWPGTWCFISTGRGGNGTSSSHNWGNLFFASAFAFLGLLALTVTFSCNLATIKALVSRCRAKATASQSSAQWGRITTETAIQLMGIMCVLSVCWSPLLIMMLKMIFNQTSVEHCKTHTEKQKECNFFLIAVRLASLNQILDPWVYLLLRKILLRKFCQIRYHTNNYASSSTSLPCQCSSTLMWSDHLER
The data set is described as follows: Calcium flux of human prostaglandin E2 receptor EP3 subtype. Format: cell-based. Particulars: CHO-K1-Gα16 cells overexpressing human EP3, activated by prostaglandin E2; read-out: hEP3 Ca^2+ IC50. As for the experimental part: as §3, §4

Data set [12] addresses T5, human prostaglandin E2 receptor EP2 subtype (Homo sapiens, UniProt P43116).
T5 construct: expressed in transfected cells; host or cells: CHO-K1-Gα16
In words: Calcium flux of human prostaglandin E2 receptor EP2 subtype. Particulars: CHO-K1-Gα16 cells overexpressing human EP2, activated by prostaglandin E2; read-out: hEP2 Ca^2+ IC50. It is filed as cell-based. As for the experimental part:
as §3, §4

T5 sequence (P43116 whole entry): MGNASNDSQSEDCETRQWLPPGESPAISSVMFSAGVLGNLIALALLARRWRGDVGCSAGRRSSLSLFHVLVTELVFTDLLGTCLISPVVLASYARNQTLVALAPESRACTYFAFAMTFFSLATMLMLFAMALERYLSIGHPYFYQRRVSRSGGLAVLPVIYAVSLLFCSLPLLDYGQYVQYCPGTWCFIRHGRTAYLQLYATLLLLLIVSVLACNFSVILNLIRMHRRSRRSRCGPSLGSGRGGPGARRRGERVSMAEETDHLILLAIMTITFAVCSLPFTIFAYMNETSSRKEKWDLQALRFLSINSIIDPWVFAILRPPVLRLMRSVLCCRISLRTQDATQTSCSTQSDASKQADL
T1 sequence (P32240 whole entry): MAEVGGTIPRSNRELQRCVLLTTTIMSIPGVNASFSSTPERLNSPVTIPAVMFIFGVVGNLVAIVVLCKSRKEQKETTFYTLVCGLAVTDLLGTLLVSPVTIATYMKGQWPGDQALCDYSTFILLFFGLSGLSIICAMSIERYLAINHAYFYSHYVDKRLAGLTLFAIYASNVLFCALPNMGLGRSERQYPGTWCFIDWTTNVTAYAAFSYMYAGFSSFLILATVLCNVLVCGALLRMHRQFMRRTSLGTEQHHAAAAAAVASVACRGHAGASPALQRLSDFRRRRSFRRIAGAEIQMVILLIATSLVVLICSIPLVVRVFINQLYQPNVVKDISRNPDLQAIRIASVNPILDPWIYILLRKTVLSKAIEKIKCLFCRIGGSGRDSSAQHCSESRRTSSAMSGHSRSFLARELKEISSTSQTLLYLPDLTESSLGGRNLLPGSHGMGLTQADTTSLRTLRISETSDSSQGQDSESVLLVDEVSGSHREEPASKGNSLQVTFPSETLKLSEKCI

`C[C@H](NC(=O)c1c(CCc2ccc(F)cc2)sc2c1CCOC2)c1ccc(C(=O)O)cc1` [YJ106, (S)-4-(1-(2-(4-fluorophenethyl)-4,7-dihydro-5H-thieno[2,3-c]pyran-3-carboxamido)ethyl)benzoic Acid]: in [1], the “Inhibitory effect on growth of subcutaneous CT26 colon cancer” value (shortened to “Inhibitory effect on growth”) was “able to suppress the growth”. Moreover, the IC50 in data set [2] and in data set [4] was below 0.1 µM each time. Moreover, the concentration for half-maximal inhibition (IC50) at 72 h in [3], in data set [5], in [6], in [7], in data set [8] and in data set [9] was above 100 µM each time.

As for `C[C@H](NC(=O)c1c(C#Cc2ccc(F)cc2)sc2c1CCCCC2)c1ccc(C(=O)O)cc1` [YJ104, (S)-4-(1-(2-((4-fluorophenyl)ethynyl)-5,6,7,8-tetrahydro-4H-cyclohepta[b]thiophene-3-carboxamido)ethyl)benzoic Acid], the IC50 (usually the midpoint of a concentration-inhibition curve) was above 10 µM in data set [10]; 0.1 to 1 µM in data set [2]; above 10 µM in [11]; below 0.1 µM in data set [4]; above 10 µM in [12]. Also, the IC50 at 72 h in data set [3], in data set [5], in data set [6], in data set [7], in [8] and in [9] was above 100 µM throughout.

Consider `O=C(O)c1ccc(CNC(=O)c2c(Cc3ccc(F)cc3)sc3c2CCOC3)cc1` [YJ120, 4-((2-(4-fluorobenzyl)-4,7-dihydro-5H-thieno[2,3-c]pyran-3-carboxamido)methyl)benzoic Acid], for which, in data set [1], the “Inhibitory effect on growth” value is “able to suppress the growth”. Besides, the IC50 in [2] is below 0.1 µM. Also, the half-inhibitory concentration (IC50) at 72 h in [3], in data set [5], in [6], in data set [7], in data set [8] and in data set [9] was above 100 µM throughout.

On to `C[C@H](NC(=O)c1c(Cc2ccc(C(F)(F)F)cc2)sc2c1CCOC2)c1ccc(C(=O)O)cc1` [YJ115, (S)-4-(1-(2-(4-(trifluoromethyl)benzyl)-5,7-dihydro-4H-thieno[2,3-c]pyran-3-carboxamido)ethyl)benzoic Acid], for which the “Inhibitory effect on growth” value in data set [1] is recorded as “able to suppress the growth”. Also, the IC50 in data set [2] and in [4] was below 0.1 µM in each case. Besides, the IC50 at 72 h in data set [3], in data set [5], in [6], in data set [7], in [8] and in data set [9] was above 100 µM each time.

Take `C[C@H](NC(=O)c1c(CCc2ccc(F)cc2)sc2c1CC(C)(C)OC2)c1ccc(C(=O)O)cc1` [YJ110, (S)-4-(1-(2-(4-fluorophenethyl)-5,5-dimethyl-5,7-dihydro-4H-thieno[2,3-c]pyran-3-carboxamido)ethyl)benzoic Acid]: the 50% inhibitory concentration (IC50) is above 10 µM in data set [10]; below 0.1 µM in data set [2]; above 10 µM in [11]; below 0.1 µM in [4]; above 10 µM in data set [12]. For the same compound, the IC50 at 72 h in data set [3], in data set [5], in [6], in data set [7], in [8] and in data set [9] was above 100 µM in each case.

Turning to `C[C@H](NC(=O)c1c(CCc2cccc(F)c2)sc2c1CCOC2)c1ccc(C(=O)O)cc1` [YJ113, (S)-4-(1-(2-(3-fluorophenethyl)-4,7-dihydro-5H-thieno[2,3-c]pyran-3-carboxamido)ethyl)benzoic Acid], the concentration for half-maximal inhibition (IC50) in data set [10] was above 10 µM; in [2], 0.1 to 1 µM; in [11], above 10 µM; in data set [4], below 0.1 µM; in data set [12], above 10 µM. Further, the IC50 at 72 h in data set [3], in data set [5], in data set [6], in [7], in data set [8] and in [9] was above 100 µM in each case.

With `C[C@H](NC(=O)c1c(NCc2ccc(C(F)(F)F)cc2)sc2c1CCOC2)c1ccc(C(=O)O)cc1` [YJ121, (S)-4-(1-(2-((4-(trifluoromethyl)benzyl)amino)-5,7-dihydro-4H-thieno[2,3-c]pyran-3-carboxamido)ethyl)benzoic Acid], the IC50 was 1 to 10 µM in [10]; below 0.1 µM in [2]; 1 to 10 µM in [11]; below 0.1 µM in data set [4]; 1 to 10 µM in data set [12]. Moreover, the concentration for half-maximal inhibition (IC50) at 72 h in data set [3], in [5], in [6], in data set [7], in data set [8] and in data set [9] was 10 to 100 µM each time.
